Laboratory results reported in US12391799B2, “Peptoid polymers and methods of use” (X-Therma, Inc., priority 2017, dated 2025).
“Also recorded” adds a separate entry of the source.

Key:
[1] = Crystallographic x-ray diffraction (XRD) ice crystal formation assay; type: physicochemical
Procedure: In order to increase the throughput of library analysis, a crystallographic x-ray diffraction (XRD) technique was used to evaluate ice crystal formation. For these experiments, the compounds named “Compound 2,” “Compound 8,” “Compound 10,” “Compound 11,” “Compound 12,” “Compound 13,” and “Compound 58” were tested. Compound 58 is similar to Compound 12, except that an arginine amino acid has been appended to the N-terminal end.
For these experiments, EG concentrations between 15% and 30% (v/v) were used. Typically, EG, DMSO, and other cryoprotectants are used during XRD sample analysis at concentrations of 35-40% (v/v) to vitrify solutions and avoid diffraction interference from ice crystals. Concentrations of 1 and 5 mg/mL of the peptoid and peptoid-peptide compounds were used. FIGS. 3A, 3B, and 3C illustrate exemplary XRD data under conditions of complete vitrification, partial vitrification with the presence of cubic ice, and freezing ([…]), respectively. FIG. 3D provides ice rings scores for a variety of EG concentrations and two concentrations of Compounds 2, 8, and 12.
“IceRing1” and “IceRing2” refer to ice formation scores, which range between 0 (no ice formation) and 15 (large ice formation).

[2] = Larger volume flash freeze / rewarm / −20° C. storage assay; type: physicochemical; details: 22.5% EG
Procedure: In order to test the usefulness of peptoid polymers at larger scales, experiments were performed using solution volumes that are similar to volumes used for standard egg and stem cell preservation. For these experiments, two samples, one containing 22.5% EG and buffer only, and another containing 22.5% EG and 5 mg/ml (0.5% w/v) of Compound 12 and buffer, were flash frozen in liquid nitrogen. […] The rewarming of the solutions in a 37° C. water bath led to an unexpected and beneficial result. The Compound 12 solution bypassed devitrification in less than 2 seconds upon rewarming (FIG. 6B, right), whereas chunks of ice were seen floating in the control sample (FIG. 6B, left) after 20 seconds. Condensation was seen on each of the tubes because the tubes were actually still much below room temperature.

HEK 293 cell line = assay: Cell-based cytotoxicity assay (MTT); set-up: species or system human
Procedure: A Tecan Genesis Robotic Workstation was used to prepare solutions in 96- and 384-well plates. Solutions contained culture media, buffers, a cryoprotectant composition (Compound 12) or DMSO. Solutions were adjusted to the desired pH. Serial dilutions were performed to obtain solutions containing various concentrations of Compound 12 and DMSO. Control experiments were performed using only culture media.
For these experiments, cells were seeded at low density (i.e., 10% confluence), exposed to solutions containing Compound 12 or DMSO, and placed in a 37° C. incubator. The cells were allowed to grow until control cells that were treated only with empty vehicle approached 70% confluence (typically about 3 to 5 days). Assessment for compound cytotoxicity was via MTT assay.

HEK 293 cells = assay: Cryopreservation assay, flash freezing in liquid nitrogen, Calcein AM viability; type: cell-based, human
Procedure: Initial cryopreservation assays were performed using very simple solutions, with and without the addition of Compound 12, in order to minimize confounding outside factors. For this first set of experiments, two sample solutions were prepared. The first sample solution contained simple buffer and ethylene glycol (EG) at a concentration of 22.5% (v/v), and the second sample solution contained simple buffer, EG (22.5% (v/v)), and 5 mg/mL (0.5% (w/v)) of Compound 12.
HEK 293 cells were grown until 70% confluent, then treated with trypsin to remove adhesion proteins and yield free floating cells. Cells were counted using a hemocytometer and sample cell concentrations were adjusted to final concentrations of 10,000 cells per microliter. Cells were then compressed into tight pellets by centrifugation, and each sample was subsequently mixed with 20 μL of one of the sample solutions. Samples were then flash frozen by immersion in liquid nitrogen, followed by rewarming in a 37° C. water bath. After the freeze-thaw process, cells were suspended in a 400× volume of culture media for recovery. The positive control sample was treated with culture media at 37° C. and not subjected to the freeze-thaw process. The negative control sample was treated with culture media only during the freeze-thaw process. After recovery, cells were stained with Calcein AM for 30 minutes and cell viability was measured using a fluorescence plate reader.
A second set of experiments was performed to evaluate the cryopreservation potential of a formulation that contained 5 mg/mL of Compound 12 plus a mixture of glycols, disaccharides, and a general buffer. Post-thaw survival following vitrification in liquid nitrogen was evaluated as described above.

[3] = Vitrification screening assay (critical EG concentration); type: physicochemical; details: lowest EG for complete vitrification of 20 μL sample, 5 mg/mL peptoid in formulation, liquid nitrogen immersion
Procedure: As another means of increasing the throughput of library analysis, a vitrification screening assay was performed to evaluate anti-icing efficacy. For these experiments the compounds named “Compound 11,” “Compound 12,” “Compound 25,” Compound 26,” “Compound 27,” “Compound 28,” “Compound 60,” “Compound 62,” “Compound 63,” “Compound 64,” “Compound 69,” “Compound 70,” “Compound 71,” “Compound 72,” “Compound 73,” “Compound 74,” “Compound 75,” “Compound 76,” “Compound 77,” “Compound 78,” “Compound 81,” “Compound 82,” “Compound 83,” “Compound 84,” and “Compound 85” were tested.
For these experiments, 20 μL samples were flash frozen by liquid immersion in liquid nitrogen. Ethylene glycol (EG) concentrations between 5% and 25% (v/v) were used. A concentration of 5 mg/mL of peptoid polymer compounds were used in formulation. Table 12 lists the lowest concentration of EG necessary to bring about complete vitrification of a 20 μL sample with peptoid polymer in formulation, referred to as the “critical EG concentration.” A sample of formulation without the presence of a peptoid polymer was only able to bring about vitrification at 20% or more EG. Peptoid polymers of interest were able to bring about vitrification within formulas containing EG when the concentration of EG was lower than 20%.

K562 cells [4] = assay: K562 viability after storage at −20° C. for 3 days (Alamar Blue); type: cell-based; details: 1% peptoid in XT Formula, K562 stored at −20° C. for 3 days, vs. XT Formula alone
Procedure: Several compounds were examined in XT Formula at 1% concentration (i.e., 1% peptoid polymer concentration) for their ability to increase the viability of cells subjected to super-cooled storage. XT Formula contains HTK buffer, among other components. In particular, the effects of these compounds on the viability of K562 cells stored at −20° C. for 3 days were evaluated. An Alamar Blue assay was used to assess cell viability 7 days after stored cells were thawed.

K562 cells [5] = assay: Cell toxicity assay in K562 cell culture; type: cell-based; details: 1% concentration, 24 hours at 37° C. and 5% CO2
Procedure: The cytotoxicity of several compounds were evaluated using a typical cell toxicity assay in K562 cell culture. […] As a positive control, some cells were incubated without any peptoid polymer (DMEM). For a negative control, cells were incubated with DMSO (DMEM+10% DMSO).

K562 cells [6] = assay: K562 survival after storage at −80° C. for 3 days (Alamar Blue); type: cell-based; details: 1% peptoid in XT Formula, K562 stored at −80° C. for 3 days
Procedure: Several compounds were examined in XT Formula at 1% concentration (i.e., 1% peptoid polymer concentration) for their effects on the cryopreservation of cells. In particular, the effects of these compounds on the survival of K562 cells stored at −80° C. for 3 days were evaluated. An Alamar Blue assay was used to assess cell survival 1 day after stored cells were thawed. A 10% DMSO formula and DMEM cell media only were used as controls.

[7] = 160 mM ethylene glycol in MilliQ water, slow cooled, −20° C., one hour
Procedure: In this experiment, four water-based samples were prepared in capillary tubes containing MilliQ purified water. One sample contained only water, and another sample contained 160 mM ethylene glycol (EG). The other two samples each contained a peptoid polymer at 9 mM.
After sample preparation, all samples were slow cooled and incubated at −20° C. on a Peltier cooled plate. After one hour, samples were removed and immediately photographed using a digital camera attached to a 180× Stereo Zoom microscope (FIG. 2A).

Compound	ice formation after flash freezing (XRD) ([1]; 5 mg/mL (0.5% (w/v)), EG 17.5% (v/v) in water, stream of liquid nitrogen vapor)	anti-icing effect in comparison to EG at the same molar concentration ([1]; 5 mg/mL with EG 17.5% (v/v)) [times]	reduction of necessary EG concentration while preventing ice formation (XRD ice ring scores) ([1]; 1 and 5 mg/mL peptoid, EG 15-30% (v/v))	vitrification on flash freezing in liquid nitrogen ([2]; 5 mg/ml (0.5% w/v) and buffer)	state after overnight in −20° C. freezer ([2]; 100 μL sample, 5 mg/ml)	toxicity by MTT assay (HEK 293 cell line; at 0.5% w/v, the concentration that prevents ice formation)	toxicity by MTT assay (HEK 293 cell line; at concentrations four times greater than 0.5% w/v)	toxicity by MTT assay (HEK 293 cell line; serial dilutions in culture media, 37° C., about 3 to 5 days)	post-thaw survival of the cells (HEK 293 cells; formulation: 5 mg/mL of Compound 12 plus a mixture of glycols, disaccharides, and a general buffer, vitrification in liquid nitrogen, 16 hours post-thaw) [%]	vitrification of cell sample during the freezing process (HEK 293 cells; simple buffer, EG 22.5% (v/v), 5 mg/mL)	cell survival after freeze-thaw (HEK 293 cells; simple buffer, EG 22.5% (v/v), 5 mg/mL vs. same solution without compound, viability 12 hours post-thaw)	devitrification of cell sample on rewarming (HEK 293 cells; simple buffer, EG 22.5% (v/v), 5 mg/mL vs. sample lacking compound)	Critical Ethylene Glycol Concentration [3]	cell viability 7 days after thaw (K562 cells [4])	cytotoxicity (cell persistence) (K562 cells [5])	cell survival 1 day after thaw (K562 cells [6])	ice crystal formation in capillary tube [7]
CCC(C)NCC(=O)N(CC(=O)N(CC(=O)N(CC(=O)N(CC(=O)N(CC(=O)N(CC(=O)N(CC(=O)N(CC(=O)N(CC(N)=O)C(C)CC)C(C)CC)CC(C)O)CC(C)O)C(C)CC)C(C)CC)CC(C)O)CC(C)O)C(C)CC (stereo not drawn) [Compound 12, Nsb-Nsb-Nhp-Nhp-Nsb-Nsb-Nhp-Nhp-Nsb-Nsb]	ice-free after flash freezing	500	significantly reduced necessary EG concentrations while preventing ice formation	complete vitrification with no ice formation; also recorded: vitrified	remained unfrozen	did not show toxicity	did not show significant toxicity	did not significantly deviate from the that of culture media alone	98	complete vitrification without ice formation	greatly improved cell survival	bypassed much more rapidly	15.0% (ν/ν)	improved cell viability compared to XT Formula alone	persisted about as well as cell incubated in cell culture media alone (DMEM)		
CCC(C)NCC(=O)N(CC(=O)N(CCCN1CCCC1=O)CC(=O)N(CCCN1CCCC1=O)CC(=O)N(CC(=O)N(CC(=O)N(CCCN1CCCC1=O)CC(=O)N(CCCN1CCCC1=O)CC(=O)N(CC(=O)N(CC(N)=O)C(C)CC)C(C)CC)C(C)CC)C(C)CC)C(C)CC (stereo not drawn) [Compound 76, Nsb-Nsb-Nop-Nop-Nsb-Nsb-Nop-Nop-Nsb-Nsb]													15.0% (ν/ν)	improved cell viability compared to XT Formula alone		produced the greatest improvement in cell survival	
OCCO [EG, ethylene glycol]																	significant ice crystal formation
